Patent US20120232044A1, “METHODS AND COMPOSITIONS FOR TREATING HYPERURICEMIA AND METABOLIC DISORDERS ASSOCIATED WITH HYPERURICEMIA” (TWi Biotechnology, Inc., priority 2011, published 2012)

Key:
[1] = system: subjects with chronic gout and hyperuricemia; assay: Case study of diacerein and allopurinol combination therapy in subjects with chronic gout and hyperuricemia; assay type: in vivo, human; details: for blood level of uric acid: visit 1 before diacerein
Experimental: In DIA-DM01 trial described in Example 1, two subjects enrolled in the diacerein group had chronic gout history and were currently treating with allopurinol.
Case 1: A person with history of chronic gout and hyperuricemia was treated with allopurinol since Jan. 2, 2009. Before they were enrolled in the diacerein trial, their medical treatment was unsatisfactory, and their blood level of uric acid was 8.3 mg/dL in visit 1 (Jul. 8, 2009).
Case 2: A person with history of chronic gout and hyperuricemia was treated with allopurinol since Aug. 27, 2009. Before they were enrolled in the diacerein trial, their medical treatment was also unsatisfactory, and their blood level of uric acid was 9.5 mg/dL in visit 1 (Dec. 18, 2009).

[2] = system: type 2 diabetes patients with micro-albuminuria, hyperuricemia sub-group (baseline blood uric acid higher than 7.0 mg/dL); assay: DIA-DM01 trial, hyperuricemia sub-group: blood uric acid level under diacerein 50 mg bid versus placebo; assay type: in vivo, human; details: for patients whose blood uric acid levels achieved normal range: normal: females below 6.0 mg/dL, males below 7.0 mg/dL
Excerpt: Objectives: To evaluate the efficacy and safety of diacerein for the treatment of albuminuria in patients with type 2 diabetes mellitus.
Primary Endpoints: To compare the change from baseline in the urinary albumin to creatinine ratio (UACR) after 24 weeks of diacerein or placebo administrated.
Subjects: Male or female type 2 diabetes patients (BMI≦35 kg/m^2) with micro-albuminuria.
Procedure: This was a Phase II, prospective, randomized, double-blind, and parallel comparison study comparing diacerein 50 mg bid (twice a day) versus placebo to albuminuria in patients with type 2 diabetes mellitus.
At the screening visit, patients who fulfilled the enrollment criteria and gave written informed consent entered a three to ten days screening period. During the screening period, the baseline UACR was evaluated. If the baseline UACR was greater than 50 mg/g, the patients were randomized into the […] treatment period in the 1:1 ratio (diacerein versus placebo). All participants were required to be taking stable dose of angiotensin-converting-enzyme (ACE) inhibitors, angiotensin receptor blockers (ARBs), or both, for three months prior to the study. These agents were continued throughout the trial. The hypoglycemic medications were maintained during the study period. The class and/or dosage were changed if clinically indicated. An introduction of a new treatment or any regimen change to the pre-existing co-medication that had hypoglycemic or hyperglycemic potential was allowed during the study with the consent of the clinical investigator.
The hyperuricemia sub-group was assembled from among the subjects with baseline blood uric acid level higher than 7.0 mg/dL. The results of blood uric acid level in the two treatment groups were analyzed by paired t-test of within-group changes.
Subjects (n=76) with diabetic microalbinuria were randomized in a 1:1 ratio to receive twice-daily diacerein 50 mg (n=38), or placebo (n=38) for 24 weeks. The baseline blood levels of uric acid in nine subjects of the diacerein group (2 females and 7 males) and twelve subjects of the placebo group (2 females and 10 males) in the hyperuricemia subgroup were above 7.0 mg/dL, and the mean levels were 8.06 mg/dL and 8.38 mg/dL respectively.

| SMILES | blood level of uric acid ([1]; Case 1, on allopurinol alone) | blood level of uric acid ([1]; Case 2, on allopurinol alone) | patients whose blood uric acid levels achieved normal range ([2]; 24-week treatment with diacerein) | Uric Acid, Mean ([2]; Baseline (before treatment), diacerein group, N=9) | Uric Acid, Mean ([2]; Baseline (before treatment), diacerein group, N=9, listed as Diacerein) | patients whose blood uric acid levels achieved normal range ([2]; after 12 weeks of diacerein) | blood uric acid levels maintained during the treatment period ([2]; diacerein 50 mg bid, below the upper end of the normal range) | Uric Acid, Mean ([2]; week 12, diacerein 50 mg bid, N=9) | Uric Acid, Change from baseline ([2]; week 12, diacerein 50 mg bid, N=9, p=0.0037 vs. baseline) | Uric Acid, Mean ([2]; week 24, diacerein 50 mg bid, N=7) | Uric Acid, Change from baseline ([2]; week 24, diacerein 50 mg bid, N=7, p=0.0060 vs. baseline) | blood uric acid level ([1]; Case 1, after 24 weeks of diacerein add-on to allopurinol) | acute flares during the treatment period ([1]; Case 1, diacerein add-on to allopurinol, 24 weeks) | blood uric acid level ([1]; Case 2, after 12 weeks of diacerein add-on to allopurinol) |
| --- | --- | --- | --- | --- | --- | --- | --- | --- | --- | --- | --- | --- | --- | --- |
| Oc1ncnc2[nH]ncc12 [allopurinol] | 8.3 mg/dL | 9.5 mg/dL | – | – | – | – | – | – | – | – | – | – | – | – |
| CC(=O)Oc1cccc2c1C(=O)c1c(OC(C)=O)cc(C(=O)O)cc1C2=O [diacerein, 4,5-bis(acetyloxy)-9,10-dioxo-2-anthracene carboxylic acid] | – | – | four of the remaining seven patients | 8.06 mg/dL | 8.0667 mg/dL | six of the nine patients | below 7.0 mg/dL | 6.6667 mg/dL | -1.40 mg/dL | 6.5571 mg/dL | -1.34 mg/dL | 7.5 mg/dL | No acute flares were observed | 6.4 mg/dL |
